# Assay results from patent US12600714B2, “Substituted pyrazinecarboxamide compounds for treating diseases related to EGFR mutation” (WIGEN BIOMEDICINE TECHNOLOGY (SHANGHAI) CO., LTD., priority 2020, dated 2026).
# Test system: EGFR (del19/T790M/C797S)
# Assay: HTRF inhibitory activity assay against EGFR (del19/T790M/C797S) enzyme
# Assay type: biochemical
# Description: Inhibitory Activity Assay of the Compounds Disclosed Herein Against EGFR (del19/T790M/C797S), EGFR (L858R/T790M/C797S) or EGFR (WT) Enzymes
# The inhibitory effects of the compounds against EGFR (del19/T790M/C797S), EGFR (L858R/T790M/C797S) or EGFR (WT) enzyme activity was determined by using HTRF. The procedures are as follows:
# The WT or mutant EGFR proteins were incubated with a serially diluted compounds at 28° C. for 10 min followed by addition of biotin-labeled general tyrosine kinase (TK) substrate and ATP. The mixture was incubated at room temperature for 40 min for reaction. After the termination of the reaction, an Eu3+-Cryptate-labeled antibody against TK and streptavidin-XL665 were added and the mixture was incubated at room temperature for 60 min. The luminescences at 615 nm and 665 nm were detected and the ratio of 665/615 was calculated to quantify the level of TK substrate phosphorylation. Inhibition % and IC50 of the compounds were calculated relative to the control group.
row,Compound,EGFR (del19/T790M/C797S) inhibition (%) (0.3 nM compound)
1,CN1CCN(C2CCN(c3ccc(Nc4nc(NC5CCOCC5)c(-c5ccccc5Cl)nc4C(N)=O)cc3)CC2)CC1 [compound 63],+ (+ indicates an inhibition less than or equal to 20%)
2,"COc1nc(Nc2ccc(N3CCC(N4CCN(C)CC4)CC3)cc2)c(C(N)=O)nc1-c1ccccc1 [compound 19, 5-methoxy-3-((4-(4-(4-methylpiperazin-1-yl)piperidin-1-yl)phenyl)amino)-6-phenylpyrazine-2-carboxamide]",+ (+ indicates an inhibition less than or equal to 20%)
3,CC(C)Nc1nc(Nc2ccc(N3CCC(N4CCN(C)CC4)CC3)c(F)c2)c(C(N)=O)nc1-c1cccc2[nH]ccc12 [compound 530],+++ (+++ indicates an inhibition greater than 50%.)
4,CN1CCN(C2CCN(c3ccc(Nc4nc(NC5CCOCC5)c(-c5ccsc5)nc4C(N)=O)cc3)CC2)CC1 [compound 93],++ (++ indicates an inhibition from 20% to 50%)
5,CN1CCN(C2CCN(c3ccc(Nc4nc(NC5CCOCC5)c(-c5ccc(N)cc5)nc4C(N)=O)cc3)CC2)CC1 [compound 95],++ (++ indicates an inhibition from 20% to 50%)
6,CN1CCN(C2CCN(c3ccc(Nc4nc(NC5CCOCC5)c(-c5ccncc5F)nc4C(N)=O)cc3)CC2)CC1 [compound 103],++ (++ indicates an inhibition from 20% to 50%)
7,CN1CCN(C2CCN(c3ccc(Nc4nc(NC5CCOCC5)c(-c5cccc(C#N)c5)nc4C(N)=O)cc3)CC2)CC1 [compound 47],+ (+ indicates an inhibition less than or equal to 20%)
8,"CN1CCN(C2CCN(c3ccc(Nc4nc(N[C@H]5CC[C@H](O)C5)c(-c5ccccc5)nc4C(N)=O)cc3)CC2)CC1 [compound 138, 5-(((1S,3S)-3-hydroxycyclopentyl)amino)-3-((4-(4-(4-methylpiperazin-1-yl)piperidin-1-yl)phenyl)amino)-6-phenylpyrazine-2-carboxamide]",++ (++ indicates an inhibition from 20% to 50%)
9,CN1CCN(C2CCN(c3ccc(Nc4nc(N[C@@H]5CCC[C@@H]5O)c(-c5ccccc5)nc4C(N)=O)cc3)CC2)CC1 [compound 133],++ (++ indicates an inhibition from 20% to 50%)
10,COc1ccccc1-c1nc(C(N)=O)c(Nc2ccc(N3CCC(N4CCN(C)CC4)CC3)cc2)nc1NC1CCOCC1 [compound 42],+ (+ indicates an inhibition less than or equal to 20%)
11,CN1CCN(C2CCN(c3ccc(Nc4nc(O[C@@H]5CCOC5)c(-c5ccccc5)nc4C(N)=O)cc3)CC2)CC1 [compound 16],+ (+ indicates an inhibition less than or equal to 20%)
12,CN1CCN(C2CCN(c3ccc(Nc4nc(N[C@H]5CCOC5)c(-c5ccccc5)nc4C(N)=O)cc3)CC2)CC1 [compound 70],+ (+ indicates an inhibition less than or equal to 20%)
13,CN1CCN(C2CCN(c3ccc(Nc4nc(NC5CC6(COC6)C5)c(-c5ccnc6[nH]ccc56)nc4C(N)=O)cc3)CC2)CC1 [compound 629],+++ (+++ indicates an inhibition greater than 50%.)
14,CN1CCN(C2CCN(c3ccc(Nc4nc(N[C@H]5C[C@H](O)C5)c(-c5cccc6[nH]ccc56)nc4C(N)=O)cc3F)CC2)CC1 [compound 534],+++ (+++ indicates an inhibition greater than 50%.)
15,CN1CCN(C2CCN(c3ccc(Nc4nc(NC5CCOCC5)c(-c5ccccc5N)nc4C(N)=O)cc3)CC2)CC1 [compound 98],+ (+ indicates an inhibition less than or equal to 20%)
16,CN1CCN(C2CCN(c3ccc(Nc4nc(NC5CCCC5)c(-c5ccncc5)nc4C(N)=O)cc3F)CC2)CC1 [compound 641],+++ (+++ indicates an inhibition greater than 50%.)
17,"CN1CCN(C2CCN(c3ccc(Nc4nc(N[C@H]5CC[C@@H](O)C5)c(-c5ccccc5)nc4C(N)=O)cc3)CC2)CC1 [compound 139, 5-(((1S,3R)-3-hydroxycyclopentyl)amino)-3-((4-(4-(4-methylpiperazin-1-yl)piperidin-1-yl)phenyl)amino)-6-phenylpyrazine-2-carboxamide]",++ (++ indicates an inhibition from 20% to 50%)
18,Cc1cc(Nc2nc(NC3CCOCC3)c(-c3ccncc3)nc2C(N)=O)ccc1N1CCC(N2CCN(C3CC3)CC2)CC1 [compound 146],++ (++ indicates an inhibition from 20% to 50%)
19,CN1CCN(C2CCN(c3ccc(Nc4nc(N[C@@H]5CCC[C@H]5O)c(-c5ccccc5)nc4C(N)=O)cc3)CC2)CC1 [compound 134],++ (++ indicates an inhibition from 20% to 50%)
20,CN1CCN(c2ccc(Nc3nc(NC4CCOCC4)c(-c4ccccc4C(N)=O)nc3C(N)=O)cc2)CC1 [compound 36],+ (+ indicates an inhibition less than or equal to 20%)
21,CN1CCN(C2CCN(c3ccc(Nc4nc(NC5CCOCC5)c(-c5ccnn5C)nc4C(N)=O)cc3)CC2)CC1 [compound 50],+ (+ indicates an inhibition less than or equal to 20%)
22,CN1CCN(C2CCN(c3ccc(Nc4nc(O[C@H]5CCOC5)c(-c5ccccc5)nc4C(N)=O)cc3)CC2)CC1 [compound 18],+ (+ indicates an inhibition less than or equal to 20%)
23,CN1CCN(C2CCN(c3ccc(Nc4nc(NC5CC5)c(-c5cc[nH]n5)nc4C(N)=O)cc3)CC2)CC1 [compound 625],+++ (+++ indicates an inhibition greater than 50%.)
24,CN1CCN(C2CCN(c3ccc(Nc4nc(NCCCS(C)(=O)=O)c(-c5ccccc5)nc4C(N)=O)cc3)CC2)CC1 [compound 27],+ (+ indicates an inhibition less than or equal to 20%)
25,CN1CCN(C2CCN(c3ccc(Nc4nc(OCC(F)(F)F)c(-c5ccccc5)nc4C(N)=O)cc3)CC2)CC1 [compound 25],+ (+ indicates an inhibition less than or equal to 20%)
26,CN1CCN(C2CCN(c3ccc(Nc4nc(NC5CCOCC5)c(-c5ccccc5NS(C)(=O)=O)nc4C(N)=O)cc3)CC2)CC1 [compound 107],+ (+ indicates an inhibition less than or equal to 20%)
27,CN1CCN(C2CCN(c3ccc(Nc4nc(NC5CCOCC5)c(-c5cnn(C)c5)nc4C(N)=O)cc3)CC2)CC1 [compound 40],+ (+ indicates an inhibition less than or equal to 20%)
28,"CN1CCN(C2CCN(c3ccc(Nc4nc(NC5CCOCC5)c(N5CCCCC5)nc4C(N)=O)cc3)CC2)CC1 [compound 116, 3-((4-(4-(4-methylpiperazin-1-yl)piperidin-1-yl)phenyl)amino)-6-(piperidin-1-yl)-5-((tetrahydro-2H-pyran-4-yl)amino)pyrazine-2-carboxamide]",+ (+ indicates an inhibition less than or equal to 20%)
29,CN1CCN(C2CCN(c3ccc(Nc4nc(NC5CCOCC5)c(-c5ccc(S(C)(=O)=O)cc5)nc4C(N)=O)cc3)CC2)CC1 [compound 46],+ (+ indicates an inhibition less than or equal to 20%)
30,CN1CCN(C2CCN(c3ccc(Nc4nc(NC5CCC5)c(-c5ccncc5)nc4C(N)=O)cc3F)CC2)CC1 [compound 639],+++ (+++ indicates an inhibition greater than 50%.)
